Structures can show the parent of a compound that is named as a salt.
What was measured:
BRD4-BD2 = BRD4-BD2 (Homo sapiens (Human), UniProt O60885); assay: BRD4 AlphaScreen assay (BRD4-BD2); format: binding; conditions: H4Ac4 peptide, read-out: BRD4 BD-2 enzyme IC50
Description: (§1) BRD4-BD1 and BRD4-BD2 assays were conducted in white 384-well polystyrene plate in a final volume of 20 μL for BD1 and 40 μL for BD2. Inhibitors were first serially diluted in DMSO and added to the plate wells before the addition of other reaction components. The final concentration of DMSO in the assay was 1.25% (BD1) and 0.83% (BD2). The assays were carried out at room temperature for 75 min. in the assay buffer (50 mM HEPES, pH 7.4, 100 mM NaCl, 0.05% CHAPS, 0.01% BSA), containing 50 nM Biotin-labeled tetra-acetylated histone H4 peptide (H4Ac4), 3.8 nM (BRD4-BD1, BPS Bioscience #31040) or 20 nM (BRD4-BD2, BPS Bioscience #31041). The reaction followed by the addition of 20 μL of assay buffer supplemented with Streptavidin donor beads (PerkinElmer 6760002) and GSH Acceptor beads (PerkinElmer-AL109C) at 4 μg/mL under reduced light. After plate sealing, the plate was incubated in the dark at room temperature for 75 min. before reading on a PHERAstar FS plate reader (BMG Labtech). IC50 determination was performed by fitting the curve of percent control activity versus the log of the inhibitor concentration using the GraphPad Prism 5.0 software.

BRD4-BD1 = BRD4-BD1 (Homo sapiens (Human), UniProt O60885); assay: BRD4 AlphaScreen assay (BRD4-BD1); format: binding; conditions: H4Ac4 peptide, read-out: BRD4 BD-1 enzyme IC50
Description: as §1

KMS.12.BM cells = assay: KMS.12.BM cell viability assay; format: cell-based; conditions: 72 h; KMS.12.BM human myeloma cells, 3 days, Cell Titer-GLO ATP quantitation; read-out: KMS cellular IC50
Method in brief: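 Human myeloma KMS.12.BM cells, 5000 per well in RPMI/10% FBS, exposed 3 days to compound concentration range. Viability from ATP-based Cell Titer-GLO luminescence; IC50 derived.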

Row | SMILES | IC50 (BRD4-BD2) [nM] | IC50 (BRD4-BD1) [nM] | IC50 (KMS.12.BM cells) [nM]
1 | Cc1cc2c(ccc3nnc(C)n32)n1[C@@H](C)c1ccccc1 (single isomer, unassigned) [Example 5, 1,7-dimethyl-6-(1-phenylethyl)-6H-pyrrolo[2,3-e][1,2,4]triazolo[4,3-a]pyridine] | ≤ 100 | 100 to 1000 | 1000 to 10000
2 | Cc1nnc2ccc3c(cc(-c4ccn(C5CN(S(C)(=O)=O)C5)n4)n3Cc3cccc(Cl)c3)n12 [Example 109, 6-(3-chlorobenzyl)-1-methyl-7-{1-[1-(methylsulfonyl)azetidin-3-yl]-1H-pyrazol-3-yl}-6H-pyrrolo[2,3-e][1,2,4]triazolo[4,3-a]pyridine] | ≤ 100 | – | ≤ 1000
3 | CCN1CC(CC#N)(n2ccc(-c3cc4c(ccc5nnc(C)n54)n3Cc3ccccc3)n2)C1 [Example 110, {3-[3-(6-benzyl-1-methyl-6H-pyrrolo[2,3-e][1,2,4]triazolo[4,3-a]pyridin-7-yl)-1H-pyrazol-1-yl]-1-ethylazetidin-3-yl}acetonitrile] | – | ≤ 100 | ≤ 1000
4 | Cc1nnc2ccc3c(cc(-c4ccn(C5(CC#N)CN(C(C)C)C5)n4)n3Cc3ccccc3)n12 [Example 111, {3-[3-(6-benzyl-1-methyl-6H-pyrrolo[2,3-e][1,2,4]triazolo[4,3-a]pyridin-7-yl)-1H-pyrazol-1-yl]-1-isopropylazetidin-3-yl}acetonitrile] | – | ≤ 100 | ≤ 1000
5 | Cc1nnc2ccc3c(cc(-c4nnco4)n3Cc3cc(Cl)cc(CN4CC(O)C4)c3)n12 [Example 139, 1-(3-Chloro-5-{[1-methyl-7-(1,3,4-oxadiazol-2-yl)-6H-pyrrolo[2,3-e][1,2,4]triazolo[4,3-a]pyridin-6-yl]methyl}benzyl)azetidin-3-ol] | ≤ 100 | ≤ 100 | 1000 to 10000
7 | Cc1nnc2ccc3c(cc(-c4nnco4)n3Cc3cccc(Cl)c3)n12 [Example 141, 6-(3-Chlorobenzyl)-1-methyl-7-(1,3,4-oxadiazol-2-yl)-6H-pyrrolo[2,3-e][1,2,4]triazolo[4,3-a]pyridine trifluoroacetate salt] | ≤ 100 | ≤ 100 | ≤ 1000
8 | Cc1nnc2ccc3c(cc(-c4ccn(C5CNC5)n4)n3Cc3cccc(Cl)c3)n12 [Example 156, 7-(1-azetidin-3-yl-1H-pyrazol-3-yl)-6-(3-chlorobenzyl)-1-methyl-6H-pyrrolo[2,3-e][1,2,4]triazolo[4,3-a]pyridine bis(trifluoroacetate) salt] | ≤ 100 | ≤ 100 | ≤ 1000
9 | Cc1nnc2ccc3c(cc(-c4ccn(C5(CC#N)CNC5)n4)n3Cc3cccc(Cl)c3)n12 [Example 157, (3-{3-[6-(3-Chlorobenzyl)-1-methyl-6H-pyrrolo[2,3-e][1,2,4]triazolo[4,3-a]pyridin-7-yl]-1H-pyrazol-1-yl}azetidin-3-yl)acetonitrile bis(trifluoroacetate) salt] | ≤ 100 | ≤ 100 | ≤ 1000
10 | Cc1nc2c(cc(NC3CCN(C)CC3)c3nnc(C)n32)n1Cc1ccccc1 [Example 223, 3-Benzyl-2,8-dimethyl-N-(1-methylpiperidin-4-yl)-3H-imidazo[4,5-e][1,2,4]triazolo[4,3-a]pyridin-5-amine] | – | ≤ 100 | ≤ 1000
11 | Cc1cc2c(cc(NC(N)=O)c3nnc(C)n32)n1Cc1c(F)cccc1F [Example 254, 1-(6-(2,6-Difluorobenzyl)-1,7-dimethyl-6H-pyrrolo[2,3-e][1,2,4]triazolo[4,3-a]pyridin-4-yl)urea] | – | – | ≤ 1000
12 | Cc1cc2c(cc(Nc3ccncc3)c3nnc(C)n32)n1Cc1ccccc1 [Example 255, 6-Benzyl-1,7-dimethyl-N-(pyridin-4-yl)-6H-pyrrolo[2,3-e][1,2,4]triazolo[4,3-a]pyridin-4-amine] | – | – | ≤ 1000
13 | Cc1cc2c(cc(Nc3cccnc3)c3nnc(C)n32)n1Cc1ccccc1 [Example 256, 6-Benzyl-1,7-dimethyl-N-(pyridin-3-yl)-6H-pyrrolo[2,3-e][1,2,4]triazolo[4,3-a]pyridin-4-amine] | – | – | ≤ 1000
14 | Cc1cc2c(cc(NCCCN)c3nnc(C)n32)n1Cc1ccccc1 [Example 257, N1-(6-Benzyl-1,7-dimethyl-6H-pyrrolo[2,3-e][1,2,4]triazolo[4,3-a]pyridin-4-yl)propane-1,3-diamine] | – | – | ≤ 1000
15 | Cc1cc2c(cc(NCCN)c3nnc(C)n32)n1Cc1ccccc1 [Example 258, N1-(6-benzyl-1,7-dimethyl-6H-pyrrolo[2,3-e][1,2,4]triazolo[4,3-a]pyridin-4-yl)ethane-1,2-diamine] | – | – | ≤ 1000
16 | CCNc1cc2c(cc(C)n2Cc2ccccc2)n2c(C)nnc12 [Example 259, 6-Benzyl-N-ethyl-1,7-dimethyl-6H-pyrrolo[2,3-e][1,2,4]triazolo[4,3-a]pyridin-4-amine] | – | – | ≤ 1000
17 | Cc1cc2c(cc(Nc3ccccc3)c3nnc(C)n32)n1Cc1ccccc1 [Example 260, 6-Benzyl-1,7-dimethyl-N-phenyl-6H-pyrrolo[2,3-e][1,2,4]triazolo[4,3-a]pyridin-4-amine] | – | – | 1000 to 10000
18 | CNc1cc2c(cc(C)n2Cc2ccccc2)n2c(C)nnc12 [Example 261, 6-Benzyl-N,1,7-trimethyl-6H-pyrrolo[2,3-e][1,2,4]triazolo[4,3-a]pyridin-4-amine] | – | – | ≤ 1000
19 | CCCNc1cc2c(cc(C)n2Cc2ccccc2)n2c(C)nnc12 [Example 262, 6-Benzyl-N-propyl-1,7-dimethyl-6H-pyrrolo[2,3-e][1,2,4]triazolo[4,3-a]pyridin-4-amine] | – | – | 1000 to 10000
20 | Cc1cc2c(cc(NC(C)C)c3nnc(C)n32)n1Cc1ccccc1 [Example 263, 6-Benzyl-N-isopropyl-1,7-dimethyl-6H-pyrrolo[2,3-e][1,2,4]triazolo[4,3-a]pyridin-4-amine] | – | – | 1000 to 10000
21 | CC(=O)Nc1cc2c(cc(C)n2Cc2ccccc2)n2c(C)nnc12 [Example 266, N-(6-Benzyl-1,7-dimethyl-6H-pyrrolo[2,3-e][1,2,4]triazolo[4,3-a]pyridin-4-yl)acetamide] | – | – | ≤ 1000
22 | CCCC(=O)Nc1cc2c(cc(C)n2Cc2ccccc2)n2c(C)nnc12 [Example 267, N-(6-Benzyl-1,7-dimethyl-6H-pyrrolo[2,3-e][1,2,4]triazolo[4,3-a]pyridin-4-yl)butyramide] | – | – | ≤ 1000
23 | CCC(=O)Nc1cc2c(cc(C)n2Cc2ccccc2)n2c(C)nnc12 [Example 268, N-(6-Benzyl-1,7-dimethyl-6H-pyrrolo[2,3-e][1,2,4]triazolo[4,3-a]pyridin-4-yl)propionamide] | – | – | ≤ 1000
24 | Cc1cc2c(cc(NC(=O)C3CC3)c3nnc(C)n32)n1Cc1ccccc1 [Example 269, N-(6-Benzyl-1,7-dimethyl-6H-pyrrolo[2,3-e][1,2,4]triazolo[4,3-a]pyridin-4-yl)cyclopropanecarboxamide] | – | – | ≤ 1000
25 | Cc1cc2c(cc(NC(=O)C(C)C)c3nnc(C)n32)n1Cc1ccccc1 [Example 270, N-(6-Benzyl-1,7-dimethyl-6H-pyrrolo[2,3-e][1,2,4]triazolo[4,3-a]pyridin-4-yl)isobutyramide] | – | – | ≤ 1000
26 | Cc1cc2c(cc(NS(C)(=O)=O)c3nnc(C)n32)n1Cc1ccccc1 [Example 271, N-(6-Benzyl-1,7-dimethyl-6H-pyrrolo[2,3-e][1,2,4]triazolo[4,3-a]pyridin-4-yl)methanesulfonamide] | – | – | ≤ 1000
27 | COC(=O)Nc1cc2c(cc(C)n2Cc2ccccc2)n2c(C)nnc12 [Example 272, Methyl 6-benzyl-1,7-dimethyl-6H-pyrrolo[2,3-e][1,2,4]triazolo[4,3-a]pyridin-4-ylcarbamate] | – | – | ≤ 1000

— patent US10442803B2, “Tricyclic heterocycles as bet protein inhibitors” (Incyte Corporation, priority 2013, dated 2019)
